This is an account of results in ChEMBL document CHEMBL1201862, “PubChem BioAssay data set” (2004).

Holding throughout (assay): NCI anticancer screen, dose series, 48 h
Assay [1] has as its system A498.
Assay [2] has as its system A549.
For assay [3], the system named is ACHN.
Assay [4] deals with LOX IMVI.
Assay [5] concerns M14.
Assay [6] relates to MOLT-4.
The test system of assay [7] is NCI-H460.
Assay [8] has as its system OVCAR-8.
The test system of assay [9] is SNB-75.
Assay [10] relates to TK-10.
Assay [11] deals with UACC-257.
Assay [12] deals with COLO 205.
For assay [13], the system named is HOP-62.
Assay [14] has as its system SF-268.
For assay [15], the system named is SK-MEL-28.
For assay [16], the system named is SK-OV-3.

SMILES strings stand for the structures.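 Five concentrations, 48 hours, 96-well plates. GI50 marks 50% less growth.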 The source made the active and inactive calls. Rule as the data show it: active = GI50 up to about 1.1 µM and inactive = higher. A value given as a limit tells only on which side of the number the result lay.

Take `C[C@@]12CCCc3coc(c31)C(=O)c1cc3c(cc12)C(=O)C=CC3=O` [XESTOQUINONE]: the GI50 in assay [1] was 56.2 µM (inactive); in assay [2] it was 23.7 µM (inactive); in assay [3], 12.8 µM (inactive); in [4], 15.8 µM (inactive); in assay [5], 16.1 µM (inactive); in [6], 1.96 µM (inactive). The GI50 in assay [7] is 21.8 µM (inactive); in assay [8], 15.5 µM (inactive); in assay [9], 19.3 µM (inactive); in assay [10], 21.2 µM (inactive); in assay [11], 16.2 µM (inactive).

Turning to `Oc1ccc(I)c2cccnc12`, the GI50 in [1] was 32 µM (inactive); in [2], 5.52 µM (inactive); in assay [3], 7.13 µM (inactive); in assay [12], 27.2 µM (inactive); in assay [13] it was 14.8 µM (inactive); in assay [4], 8.26 µM (inactive). Further, the GI50 is 10.4 µM (inactive) in [5]; 2.96 µM (inactive) in assay [6]; 3.95 µM (inactive) in [7]; 3.66 µM (inactive) in [8]; 7.45 µM (inactive) in [14]; 40.1 µM (inactive) in [15]. In addition, the figures for the GI50 in assay [16], in assay [10] and in [11] were 5.07 µM (inactive), 37.2 µM (inactive) and 16.3 µM (inactive), respectively.

For the compound `O=C(O/C(=C(/N=N/c1ccccc1)c1ccccc1)c1ccccc1)c1ccccc1`, the GI50 in assay [2], in assay [3], in assay [6], in [7], in [8] and in [15] was > 100 µM (inactive) throughout. In addition, the GI50 in assay [16] was > 100 µM (inactive); in assay [9], 87.3 µM (inactive); in [10], > 100 µM (inactive); in [11], > 100 µM (inactive).

For the compound `O=C(N/C(=C\c1cc(Cl)ccc1Cl)c1nc2ccccc2[nH]1)c1ccccc1`, the GI50 is 35.1 µM (inactive) in [2]; 33.3 µM (inactive) in [3]; 27.9 µM (inactive) in [5]; 14.9 µM (inactive) in [6]; 19.2 µM (inactive) in [8]; 36.1 µM (inactive) in [14]. The GI50 is 45.3 µM (inactive) in assay [15], > 100 µM (inactive) in [16] and 93.3 µM (inactive) in [10].

With `CCOC(=O)c1nc2ccc(Cl)cc2c2c1Cc1ccccc1-2`, the GI50 in assay [2], in [3], in [12], in [13], in assay [4] and in assay [5] was > 100 µM (inactive) each time. Besides, the GI50 in [6] was > 100 µM (inactive); in [8] it was > 100 µM (inactive); in assay [14] it was > 100 µM (inactive); in [15], > 100 µM (inactive); in assay [9], 70 µM (inactive); in assay [10], > 100 µM (inactive). For the same compound, the GI50 in [11] is 75.3 µM (inactive).

Consider `Cc1c(Cl)cccc1NC(=O)C(=O)C(C(=O)c1ccccc1-c1ccccc1)C1OC(=O)c2ccccc21` (stereo unspecified), for which the GI50 was 22.4 µM (inactive) in [2]; 20.2 µM (inactive) in [12]; 16.3 µM (inactive) in assay [13]; 18.3 µM (inactive) in assay [4]; 17 µM (inactive) in assay [5]; 14.3 µM (inactive) in [6]. Moreover, the GI50 in assay [7] was 25.5 µM (inactive); in assay [8], 25.5 µM (inactive); in assay [14], 19.7 µM (inactive); in assay [15], 19 µM (inactive); in assay [16], 43 µM (inactive); in [9] it was 19.3 µM (inactive). Moreover, the figures for the GI50 in assay [10] and in assay [11] were 28.6 µM (inactive) and 13.5 µM (inactive), respectively.

With `Cn1c(=O)nc2n(-c3cc(Cl)ccc3Cl)c3ccccc3nc-2c1=O`, the GI50 was 18.6 µM (inactive) in assay [1]; 4 µM (inactive) in assay [2]; 0.906 µM (active) in [3]; 1.82 µM (inactive) in [12]; 12 µM (inactive) in [13]; 3.63 µM (inactive) in assay [5]. Besides, the GI50 in assay [6] is 8.02 µM (inactive); in [7], 2.53 µM (inactive); in assay [8], 3.34 µM (inactive); in [14] it was 11.9 µM (inactive); in [16], 28 µM (inactive); in assay [9], 11.2 µM (inactive). In addition, the GI50 in assay [10] was 12.3 µM (inactive); in assay [11], 2.18 µM (inactive).

Regarding `CCN(CC)c1ccc2c(c1)Oc1ccc(N(CC)CC)cc1C21Oc2ccccc2-c2c1c1ccccc1n2CC` (stereo unspecified), the GI50 in assay [1] was 8.34 µM (inactive); in assay [2], 3.18 µM (inactive); in assay [3], 1.32 µM (inactive); in [12] it was 2.45 µM (inactive); in assay [4] it was 3.24 µM (inactive); in assay [5] it was 3.07 µM (inactive). The GI50 in [6] is 2.88 µM (inactive); in assay [8], 6.18 µM (inactive); in assay [14], 2.38 µM (inactive); in assay [15] it was 2 µM (inactive); in [16], 4.07 µM (inactive); in [9], > 100 µM (inactive). Further, the GI50 in assay [11] is 2.89 µM (inactive).

`CN1CCC(O)C(CNC23CC4CC(CC(C4)C2)C3)C1` (stereo unspecified): the GI50 in [1], in [2], in assay [3], in assay [12], in assay [13] and in assay [4] was > 100 µM (inactive) each time. Besides, the GI50 is > 100 µM (inactive) in assay [6]; > 100 µM (inactive) in [7]; > 100 µM (inactive) in [8]; > 100 µM (inactive) in assay [14]; > 10 µM (inactive) in assay [15]; > 100 µM (inactive) in [16]. The GI50 in assay [10] and in [11] was > 100 µM (inactive) throughout.

For `NNC(=O)N/N=C1\C(=O)N(c2nccs2)C(=O)C(=O)C1c1nc2ccccc2s1` (stereo unspecified), the GI50 in assay [2], in assay [3], in assay [12], in assay [13], in [4] and in [5] was > 100 µM (inactive) throughout. The GI50 in assay [7], in assay [8], in [14], in [15], in assay [16] and in [9] was > 100 µM (inactive) throughout. For the same compound, the GI50 in assay [10] and in assay [11] was > 100 µM (inactive) in each case.

Turning to `CC(=O)N(C)c1ccc2ncccc2c1[N+](=O)[O-]`, the GI50 in assay [1], in assay [2], in assay [3], in [13], in assay [4] and in assay [5] was > 100 µM (inactive) in each case. The GI50 in assay [6], in assay [7], in assay [8], in assay [14], in [15] and in [9] was > 100 µM (inactive) throughout. The GI50 in assay [10] and in assay [11] was > 100 µM (inactive) throughout.
